Laboratory results as given in ChEMBL document CHEMBL1201862, “PubChem BioAssay data set” (2004).
Active and inactive are the calls of the source. Rule as the data show it, for most assays here: actives have a measured EC50 and inactives only a lower limit.

Assays:
[1] = NIH-3T3 fibroblast cytotoxicity, dose response, cytotoxicity control, cell-based, fluorescence, Alamar Blue, secondary assay (AID 2327); assay type: functional;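 also: NIH-3T3 mouse fibroblasts cultured with fluconazole at 8 µg/mL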
[2] = C. albicans growth with fluconazole, confirmation, fluorescence, retest (AID 2467); assay type: functional, cell-based
Cytochrome P450 3A4 = Cytochrome P450 3A4 (Homo sapiens, UniProt P08684);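 also: CYP3A4 tested as one member of a cytochrome P450 panel screen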
Cytochrome P450 3A4, sequence (P08684 whole entry): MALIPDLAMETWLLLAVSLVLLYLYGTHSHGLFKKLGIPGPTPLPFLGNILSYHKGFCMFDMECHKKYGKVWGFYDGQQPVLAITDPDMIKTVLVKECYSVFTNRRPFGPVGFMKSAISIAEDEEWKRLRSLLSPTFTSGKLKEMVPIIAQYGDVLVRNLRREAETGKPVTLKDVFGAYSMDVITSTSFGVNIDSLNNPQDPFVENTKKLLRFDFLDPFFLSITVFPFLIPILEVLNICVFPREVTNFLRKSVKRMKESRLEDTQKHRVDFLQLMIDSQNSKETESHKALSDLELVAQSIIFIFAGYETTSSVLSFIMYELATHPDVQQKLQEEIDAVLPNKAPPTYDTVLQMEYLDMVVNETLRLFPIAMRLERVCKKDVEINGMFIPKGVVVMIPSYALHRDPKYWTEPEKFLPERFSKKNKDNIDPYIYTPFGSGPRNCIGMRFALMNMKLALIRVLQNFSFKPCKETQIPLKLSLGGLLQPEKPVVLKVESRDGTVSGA

Cytochrome P450 2C9 = Cytochrome P450 2C9 (Homo sapiens, UniProt P11712)
Cytochrome P450 2C9, sequence (P11712 whole entry): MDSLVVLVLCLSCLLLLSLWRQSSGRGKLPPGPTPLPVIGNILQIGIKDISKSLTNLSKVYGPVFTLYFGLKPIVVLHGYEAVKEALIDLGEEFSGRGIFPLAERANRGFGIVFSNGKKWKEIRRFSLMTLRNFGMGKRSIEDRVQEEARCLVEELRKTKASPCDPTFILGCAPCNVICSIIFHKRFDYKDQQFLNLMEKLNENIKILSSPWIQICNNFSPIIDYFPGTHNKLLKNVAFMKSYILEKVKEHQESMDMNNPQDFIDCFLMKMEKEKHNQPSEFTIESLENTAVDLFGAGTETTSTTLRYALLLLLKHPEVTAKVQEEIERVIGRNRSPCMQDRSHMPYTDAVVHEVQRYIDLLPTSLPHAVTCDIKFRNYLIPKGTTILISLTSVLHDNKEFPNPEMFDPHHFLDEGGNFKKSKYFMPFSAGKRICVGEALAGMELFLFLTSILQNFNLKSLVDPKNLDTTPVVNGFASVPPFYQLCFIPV

[3] = system: Streptococcus sp. 'group A'; assay: growth inhibition of control SK(-) GAS strain, dose response, counter-screen for streptokinase expression inhibitor project, luminescence, kanamycin, BacTiterGlo, confirmation (AID 1900); assay type: functional, organism-based
Streptokinase A = target: T1, Streptokinase A (Streptococcus pyogenes serotype M1, UniProt P10520); assay: S. pyogenes streptokinase expression inhibitors, potency, dose response, plasminogen activation absorbance, OD405 (AID 1914); assay type: functional, Streptococcus pyogenes M1 GAS;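 also: secreted streptokinase activity via plasminogen activation per viability signal from cell pellet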
T1 sequence (P10520 whole entry): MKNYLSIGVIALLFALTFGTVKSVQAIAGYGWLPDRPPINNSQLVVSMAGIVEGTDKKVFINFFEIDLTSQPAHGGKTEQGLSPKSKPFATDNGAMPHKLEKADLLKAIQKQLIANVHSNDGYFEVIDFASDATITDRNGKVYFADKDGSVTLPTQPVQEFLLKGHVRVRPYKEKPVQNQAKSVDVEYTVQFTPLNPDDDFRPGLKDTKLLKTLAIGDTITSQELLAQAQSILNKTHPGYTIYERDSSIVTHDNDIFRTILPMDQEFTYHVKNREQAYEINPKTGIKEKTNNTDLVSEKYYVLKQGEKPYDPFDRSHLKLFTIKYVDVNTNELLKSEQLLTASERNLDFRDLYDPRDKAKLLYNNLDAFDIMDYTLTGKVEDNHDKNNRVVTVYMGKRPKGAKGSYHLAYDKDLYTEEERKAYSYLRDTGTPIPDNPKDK

Streptococcus = assay: Group A Streptococcus viability loss, dose response, counter-screen for streptokinase expression inhibitor project, luminescence, BacTiterGlo (AID 1915); assay type: functional, organism-based;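 also: potency for reduction of bacterial viability or growth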
[4] = Luminescence Cell-Based Dose Response HTS to Identify Activators of Luciferase Translation or Activity in H4 […] Cells. [Related pubchem assays: 1829 (Project Summary), 1814 (Primary HTS)]; assay type: functional
H4 = assay: Luminescence Cell-Based Dose Response HTS to Identify Activators of 5'UTR Stem-Loop Driven Prion Protein mRNA Translation in H4 Neuroglioblastoma Cells. [Related pubchem assays: 1829 (Project Summary), 1814 (Primary HTS)]; assay type: functional; conditions: Homo sapiens
[5] = inhibitors of intracellular T. cruzi replication, confirmation, NIH3T3 host cells, beta-gal luminescence (AID 2044); assay type: functional, cell-based;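 also: intracellular parasites grown in NIH/3T3 mouse fibroblasts as host cells; luminescent beta-galactosidase reporter signal from transgenic T. cruzi replicating inside host cells; inhibitors lower the luminescence signal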
[6] = cytotoxicity toward NIH3T3 fibroblasts, dose response, counter-screen, cell-based, ATP luminescence, mouse fibroblasts (AID 2010); assay type: functional;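 also: cells exposed to compound for about 90 hours before reading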
[7] = Luminescence Cell-Based Dose Retest to Confirm Inhibitors of Cancer Stem Cells. [Related pubchem assays (depositor defined):AID2717, AID2721]; assay type: functional; conditions: Homo sapiens
[8] = target: T2, Short transient receptor potential channel 4 (Mus musculus, UniProt Q9QUQ5); assay: mouse TRPC4 channel inhibitors, dose response, cell-based, HEK293 TRPC4/mu-opioid, Fluo-4 calcium (AID 434942); assay type: functional;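 also: potency of inhibitors blocking the TRPC4 calcium response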
T2 sequence (Q9QUQ5 whole entry): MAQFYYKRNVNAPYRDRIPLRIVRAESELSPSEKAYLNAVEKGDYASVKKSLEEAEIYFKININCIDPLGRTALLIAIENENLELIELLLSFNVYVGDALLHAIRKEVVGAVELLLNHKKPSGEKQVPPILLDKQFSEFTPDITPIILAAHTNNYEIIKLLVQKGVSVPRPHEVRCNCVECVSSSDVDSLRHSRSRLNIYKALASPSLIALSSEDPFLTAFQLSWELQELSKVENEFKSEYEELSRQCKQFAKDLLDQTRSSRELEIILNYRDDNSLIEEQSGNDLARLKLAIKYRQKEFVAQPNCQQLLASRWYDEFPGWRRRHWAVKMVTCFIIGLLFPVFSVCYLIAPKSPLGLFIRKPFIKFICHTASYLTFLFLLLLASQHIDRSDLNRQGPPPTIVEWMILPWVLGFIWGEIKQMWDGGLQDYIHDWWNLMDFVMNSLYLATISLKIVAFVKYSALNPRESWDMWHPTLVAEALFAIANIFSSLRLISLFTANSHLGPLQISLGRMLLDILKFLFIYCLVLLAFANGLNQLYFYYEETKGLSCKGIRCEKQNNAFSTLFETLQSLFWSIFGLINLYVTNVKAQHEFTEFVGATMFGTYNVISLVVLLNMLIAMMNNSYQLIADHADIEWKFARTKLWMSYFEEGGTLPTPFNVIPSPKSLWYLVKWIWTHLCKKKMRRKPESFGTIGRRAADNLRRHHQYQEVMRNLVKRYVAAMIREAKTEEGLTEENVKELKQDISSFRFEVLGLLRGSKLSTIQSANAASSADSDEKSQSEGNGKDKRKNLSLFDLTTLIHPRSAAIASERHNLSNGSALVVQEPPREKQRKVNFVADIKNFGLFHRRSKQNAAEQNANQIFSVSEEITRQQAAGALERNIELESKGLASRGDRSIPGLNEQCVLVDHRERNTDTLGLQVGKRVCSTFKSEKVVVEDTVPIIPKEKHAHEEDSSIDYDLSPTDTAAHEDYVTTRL

Compound | EC50 [3] | EC50 (Streptokinase A) | EC50 (Streptococcus) | further results
S=C(NCCN1CCOCC1)NC1CCCC1 | – | – | – | EC50 [1]: > 150 µM (inactive); EC50 [2]: > 38 µM (not active)
CCNc1ncc2nc(-c3cccs3)c(=O)n(C)c2n1 | – | – | – | AC50 (Cytochrome P450 3A4): 12.6 µM (inconclusive); AC50 (Cytochrome P450 2C9): 10 µM (inconclusive)
COc1cccc(Cn2c(=O)c(-c3cn(C)c4ccccc34)nc3cncnc32)c1 | – | – | – | AC50 (Cytochrome P450 3A4): 10 µM (inconclusive); AC50 (Cytochrome P450 2C9): 0.794 µM (inconclusive)
CCOC(=O)c1sc(Nc2nc3ccc(OC)cc3s2)cc1C | 9.29 µM (active) | > 150 µM (not active) | 8.88 µM (active) | –
COc1cc2c(cc1NC(=O)c1ccccc1F)CCCC2 | – | – | – | EC50 [4]: 89.6 µM (active); EC50 (H4): > 120 µM (not active)
CCc1c(C)c(C#N)c2nc3ccccc3n2c1S | 14.6 µM (active) | > 150 µM (not active) | 21.5 µM (active) | –
CCCc1nc2ccccc2c(C(=O)OCC(=O)N2CCc3ccccc32)c1CC | – | – | – | EC50 [5]: 0.496 µM (active); EC50 [6]: > 60 µM (not active); AC50 [7]: 3.04 µM (active)
CCOC(=O)C1CCN(CC(O)COc2ccc(C(C)(C)C)cc2)CC1 (stereo unspecified) | – | – | – | EC50 [8]: 1.88 µM (active)
COCCn1c(SCC(=O)Nc2ccc(F)cc2)nc2c3ccccc3nc-2c1O | > 150 µM (not active) | > 150 µM (not active) | > 150 µM (not active) | –
COC(=O)[C@@H]1CCCN1Cc1nc(Cc2ccccc2F)no1 | – | – | – | EC50 [1]: > 160 µM (inactive); EC50 [2]: > 38 µM (not active)
Fc1ccccc1COc1ccc(-c2nnn(Cc3ccccc3F)n2)cc1 | – | – | – | AC50 [7]: 5.63 µM (active)
Cc1cccc(Nc2nnc(-c3ccc(N4CCOCC4)c([N+](=O)[O-])c3)c3ccccc23)c1 | 3.77 µM (active) | > 150 µM (not active) | 125 µM (active) | –
CCSc1cc(N2CCCC2)nc(-c2ccccc2)n1 | > 150 µM (not active) | 66.1 µM (active) | > 150 µM (not active) | –
Oc1c2cnnc-2nc(SCc2c(F)cccc2F)n1-c1ccc(Cl)cc1 | 14.1 µM (active) | > 150 µM (not active) | > 150 µM (not active) | –
CC(=O)Nc1cccc(C(=O)NCC2(N3CCCCC3)CCCCC2)c1 | – | – | – | EC50 [8]: 2.66 µM (active)
Cc1ccc(Cn2ccc(NC(=O)c3cc(C)on3)n2)cc1 | – | – | – | EC50 [1]: > 150 µM (inactive); EC50 [2]: > 38 µM (not active)
Cn1cc(CN2CCCCC2CO)c(-c2ccc(Oc3ccccc3)cc2)n1 (stereo unspecified) | – | – | – | EC50 [8]: 7.5 µM (active)
O=C(CC1Nc2ccccc2NC1=O)Nc1ccccc1 (stereo unspecified) | – | – | – | AC50 [7]: 0.568 µM (active)
COc1cc(OC)cc(-c2cc3nc4c(c(N5CCN(c6ncccn6)CC5)n3n2)CCCC4)c1 | 13.2 µM (active) | > 150 µM (not active) | 106 µM (active) | –
